Measured values as given in patent US11993561B2, “Expectorant compound, preparation method thereof and use thereof” (priority 2019, dated 2024).
Where a name gives a salt, the structure may show the parent alone.

How the values were obtained:
Type in all cases: in vivo
[1] = system: mice; assay: Expectorant test in mice using a phenol red method; conditions: for Expectorant effect (secretion of phenol red in tracheal segment), result in words: comparison between groups; for Tracheal phenol red excretion: n=10, phenol red i.p. 1 h after dosing, sacrifice 0.5 h later
Procedure: In Vivo Pharmacodynamic Test—Expectorant Test in Mice Using a Phenol Red Method
In this example, the in vivo efficacy of the compounds I1, I4, I13 of the present disclosure and known compounds was tested.
Mice in the positive control group were give medicinal ammonium chloride and ambroxol hydrochloride orally, mice in the normal control group were given normal saline of the same amount, and mice the other groups were given corresponding drugs by gavage. The mice were administered by gavage once in the morning and afternoon (excluding ammonium chloride) 2 days before the experiment. After 1 hour of intragastric administration on the morning of the experiment, the mice were intraperitoneally injected with 0.5 ml of phenol red, and the mice were sacrificed 0.5 hours later. The tissue surrounding the organs was peeled off, and a section of the trachea from the thyroid cartilage to the branch of the trachea was cut off and placed in a test tube containing 2 ml of normal saline. The tube was shaken for 30 minutes, the trachea was discarded, and 0.2 ml of sodium hydroxide (1 mol/L) was added to each sample solution. The OD value was measured using a UV-visible spectrophotometer at a wavelength of 546 nm, and the absorbance values were converted into the phenol red content according to the phenol red standard curve.
The data was processed by PEMS medical statistical software.

[2] = Acute toxicity test in mice administered intravenously; conditions: male, ICR, mouse, in vivo, iv
Procedure: (§1) Acute toxicity test of the compound of the present disclosure to mice administered intravenously
(§2) To test the acute toxicity of compounds of the present disclosure and comparative compounds, the following experiments were performed.
(§3) Compounds of the present disclosure were dissolved in water and administered to 5 ICR mice (mice of 5-week old, male, weighing 20 g±2 g). Intravenous administration was performed to determine the median lethal dose (LD50, mg/kg). Ambroxol hydrochloride was used as a control.

[3] = system: ICR mice; assay: as above; conditions: ICR mice, intravenous
Procedure: as §1, §2, §3

[4] = gavage, dose 0.5 ml/kg (low dose)
[5] = gavage, dose 2.0 ml/kg (high dose)

SMILES	Dose-effect relationship of expectorant effect ([1]; 0.5 vs 2.0 ml/kg)	Expectorant effect (secretion of phenol red in tracheal segment), result in words [1]	Tracheal phenol red excretion [1, 4]	Tracheal phenol red excretion [1, 5]	LD50 [2]	LD50 compared with ambroxol hydrochloride, in words [3]	Tracheal phenol red excretion ([1]; oral, dose 1.0 ml/kg)
Nc1c(Br)cc(Br)cc1CN[C@H]1CC[C@H](SCCCO)CC1 [I13, trans 3-[4-(2-amino-3,5-dibromo-benzylamino)-cyclohexylsulfanyl]-propan-1-ol]	relatively obvious dose-effect relationship	strongest effect	1.452 ± 0.351 ΔΔ** mg/L	1.826 ± 0.334 ΔΔ** mg/L	507 mg/kg	much higher	–
CN(Cc1cc(Br)cc(Br)c1N)[C@H]1CC[C@H](S)CC1.Cl [I4, trans-4-[(2-amino-3,5-dibromo-benzyl)-methyl-amino]-cyclohexanethiol hydrochloride]	–	–	1.083 ± 0.312 ΔΔ** mg/L	1.273 ± 0.275 ΔΔ** mg/L	523 mg/kg	much higher	–
Nc1c(Br)cc(Br)cc1CN[C@H]1CC[C@H](O)CC1 [Ambroxol, ambroxol hydrochloride, reference compound]	–	best effect	–	1.418 ± 0.352 ΔΔ** mg/L	268 mg/kg	–	–
Cl.N [Ammonium chloride, ammonium chloride, reference compound]	–	–	–	–	–	–	0.875 ± 0.208 ΔΔ** mg/L
CC(=O)N[C@@H](CS)C(=O)O [Acetylcysteine, acetylcysteine, reference compound]	–	–	–	1.532 ± 0.247 ΔΔ** mg/L	–	–	–
Cl.Nc1c(Br)cc(Br)cc1CN[C@H]1CC[C@H](S)CC1 [I1, trans-4-[(2-amino-3,5-dibromo-benzyl)amino]-cyclohexanethiol hydrochloride]	–	best effect	1.225 ± 0.337 ΔΔ** mg/L	1.610 ± 0.284 ΔΔ** mg/L	453 mg/kg	much higher	–
